Test results from PMC11935913, “Silk Nanococoons: Bio‐Nanoreactors for Enzymatic Catalytic Reactions and Applications to Alcohol Intoxication” (Small Science, 2021).

Target: T1, horseradish peroxidase (HRP) (Armoracia rusticana, UniProt P00433)
T1 construct: gene PRXC1A
T1 sequence (P00433 31-338): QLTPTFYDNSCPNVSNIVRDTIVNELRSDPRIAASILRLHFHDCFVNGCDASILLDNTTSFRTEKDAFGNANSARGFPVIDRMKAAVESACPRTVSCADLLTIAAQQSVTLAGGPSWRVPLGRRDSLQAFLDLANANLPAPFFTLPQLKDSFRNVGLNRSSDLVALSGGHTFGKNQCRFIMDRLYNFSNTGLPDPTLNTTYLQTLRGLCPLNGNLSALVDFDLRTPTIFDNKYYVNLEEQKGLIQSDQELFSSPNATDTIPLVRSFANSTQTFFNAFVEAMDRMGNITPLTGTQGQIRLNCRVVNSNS
Test: absorbance, plate reader, oxidation by H2O2
Assay type: biochemical
Conditions: H2O2 co-substrate

| SMILES | absorbance, plate reader, oxidation by H2O2 (enzyme in silk fibroin nanospheres) | absorbance, plate reader, oxidation by H2O2 (generated by GOx from glucose) |
| --- | --- | --- |
| Cc1cc(-c2cc(C)c(N)c(C)c2)cc(C)c1N [3,3′,5,5′‐tetramethylbenzidine] | activity recovery of enzyme HRP in SENs was monitored by the oxidation of TMB |  |
| COc1cc(-c2ccc(N)c(OC)c2)ccc1N [o‐dianisidine] |  | the ODS or TMB gets oxidized by H2O2 under the catalysis of HRP |
